This passage reports chromatographic logP, pest or weed control and Efficacy in % results from US6632817B2, “Fluoromethoximino compounds” (priority 1997, dated 2003).

As a reminder, the chromatographic logP is a lipophilicity value derived from retention on a column. The low end stands for lower lipophilicity, the high end for higher lipophilicity.

Series [1] in a line: logP determination by HPLC (EEC Directive 79/831 Annex V. A8). The class given is physicochemical. As to conditions: HPLC gradient method, acetonitrile/0.1% aqueous phosphoric acid. How it is done: The logP values are determined in accordance with EEC Directive 79/831 Annex V. A8 by HPLC (gradient method, acetonitrile/0.1% aqueous phosphoric acid).
Series [2] deals with Plasmopara viticola. Kind of series: Plasmopara test (grapevine)/protective. The class given is in vivo. As to conditions: Plasmopara viticola, 144 h, protective, application rate 100 g/ha, evaluation 6 days after inoculation, read-out: Efficacy in %. As to the method: Plasmopara Test (Grapevine)/Protective
(§1) Solvent: 47 parts by weight of acetone
(§2) Emulsifier: 3 parts by weight of alkylaryl polyglycol ether
(§3) To produce a suitable preparation of active compound, 1 part by weight of active compound is mixed with the stated amounts of solvent and emulsifier, and the concentrate is diluted with water to the desired concentration.
To test for protective activity, young plants are sprayed with the preparation of active compound at the stated application rate. After the spray coating has dried on, the plants are inoculated with an aqueous spore suspension of Plasmopara viticola and then remain in an incubation cabin at approximately 20° C. and 100% relative atmospheric humidity for 1 day. The plants are subsequently placed in a greenhouse at approximately 21° C. and approximately 90% relative atmospheric humidity for 5 days. The plants are then moistened and placed in an incubation cabin for 1 day.
Evaluation is carried out 6 days after the inoculation. 0% means an efficacy which corresponds to that of the control, whereas an efficacy of 100% means that no infection is observed.

Series [3] has as its system Venturia inaequalis. Briefly: Venturia test (apple)/protective. The note with it: Venturia inaequalis, 288 h, protective, application rate 10 g/ha, evaluation 12 days after inoculation, read-out: Efficacy in %. The class given is in vivo. As to the method: Venturia Test (Apple)/Protective
as §1, §2, §3
To test for protective activity, young plants are sprayed with the preparation of active compound at the stated application rate. After the spray coating has dried on, the plants are inoculated with an aqueous conidia suspension of the causative organism of apple scab Venturia inaequalis and then remain in an incubation cabin at approximately 20° C. and 100% relative atmospheric humidity for 1 day.
The plants are then placed in a greenhouse at approximately 21° C. and a relative atmospheric humidity of approximately 90%.
Evaluation is carried out 12 days after the inoculation. 0% means an efficacy which corresponds to that of the control, whereas an efficacy of 100% means that no infection is observed.

For series [4], the system named is Puccinia recondita. Kind of series: Puccinia test (wheat)/protective. The note with it: Puccinia recondita, 240 h, protective, application rate 250 g/ha, evaluation 10 days after inoculation, read-out: Efficacy in %. The class given is in vivo. As to the method:
Puccinia Test (Wheat)/Protective
(§4) Solvent: 25 parts by weight of N,N-dimethylacetamide
(§5) Emulsifier: 0.6 part by weight of alkylaryl polyglycol ether
as §3
To test for protective activity, young plants are sprayed with the preparation of active compound at the stated application rate. After the spray coating has dried on, the plants are sprayed with a conidia suspension of Puccinia recondita. The plants remain in an incubation cabin at 20° C. and 100% relative atmospheric humidity for 48 hours.
The plants are then placed in a greenhouse at a temperature of approximately 20° C. and a relative atmospheric humidity of 80% to promote the development of rust pustules.
(§6) Evaluation is carried out 10 days after the inoculation. 0% means an efficacy which corresponds to that of the control, whereas an efficacy of 100% means that no infection is observed.

The test system of series [5] is Puccinia recondite. Kind of series: Puccinia test (wheat)/curative. The class given is in vivo. As to conditions: curative, application rate 250 g/ha, evaluation 10 days after inoculation. How it is done:
Puccinia Test (Wheat)/Curative
as §4, §5, §3
To test for curative activity, young plants are sprayed with a conidia suspension of Puccinia recondite. The plants remain in an incubation cabin at 20° C. and 100% relative atmospheric humidity for 48 hours. The plants are subsequently sprayed with the preparation of active compound at the stated application rate.
The plants are placed in a greenhouse at a temperature of approximately 20° C. and a relative atmospheric humidity of approximately 80% to promote the development of rust pustules.
as §6

In turn, `CNC(=O)/C(=N\OCF)c1ccccc1Oc1nc(-c2cccc(C(F)(F)F)c2)ns1` [Example 28] showed a chromatographic logP in series [1] of 3.6. The pest or weed control at 100 g/ha in series [2] was no less than 98%. In addition, the pest or weed control at 10 g/ha in series [3] is no less than 99%. For the same molecule, the pest or weed control at 250 g/ha in series [4] was no less than 80%. For the same molecule, the Efficacy in % in series [5] is given as 100%.

Regarding `CNC(=O)/C(=N\OCF)c1ccccc1Oc1ncnc(Oc2cccc(Cl)c2C)c1F` [drawing 99], the Efficacy in % in series [5] came out at 100%.

As to `CNC(=O)/C(=N\OCF)c1ccccc1Oc1nc(-c2cccc(C(F)(F)F)c2)ns1` [drawing 103], in series [5], the Efficacy in % was found to be 100%.

Turning to `CNC(=O)/C(=N\OCF)c1ccccc1Oc1ncnc(Oc2ccccc2OC(F)F)c1F` [drawing 100], the Efficacy in % in series [5] is recorded as 100%.

With `CNC(=O)/C(=N\OCF)c1ccccc1Oc1nc(-c2ccc(OC(F)(F)F)cc2)ns1` [drawing 104], in series [5], the Efficacy in % turned out to be 100%.

With `CNC(=O)/C(=N\OCF)c1ccccc1Oc1nc(-c2ccc(C(F)(F)F)cc2)ns1` [Example 19], in series [1], the chromatographic logP was 3.7. Further, the pest or weed control at 100 g/ha in series [2] is no less than 98%. Further, the pest or weed control at 10 g/ha in series [3] is no less than 99%. Further, the pest or weed control at 250 g/ha in series [4] is no less than 80%.

`CNC(=O)/C(=N\OCF)c1ccccc1Oc1nc(-c2cccc(OC(F)(F)F)c2)ns1` [Example 23] had a chromatographic logP in series [1] of 3.8. In addition, the pest or weed control at 100 g/ha in series [2] is no less than 98%. The pest or weed control at 10 g/ha in series [3] is no less than 99%.

In series [1], `CNC(=O)/C(=N\OCF)c1ccccc1Oc1ncnc(Oc2cccc(C)c2Cl)c1F` [Example 27] showed a chromatographic logP of 3.32. Moreover, in series [2], the pest or weed control at 100 g/ha is no less than 98%.

In turn, `CNC(=O)/C(=N\OCF)c1ccccc1Oc1nc(-c2ccc(OC(F)F)cc2)ns1` [Example 26] had a chromatographic logP in series [1] of 3.2. In addition, in series [2], the pest or weed control at 100 g/ha is no less than 98%. Moreover, in series [3], the pest or weed control at 10 g/ha is no less than 99%. Also, the pest or weed control at 250 g/ha in series [4] is no less than 80%.

For the molecule `CNC(=O)/C(=N\OCF)c1ccccc1Oc1ncnc(Oc2ccccc2C#N)c1F` [Example 10], the chromatographic logP in series [1] came out at 2.8. Further, in series [2], the pest or weed control at 100 g/ha is no less than 98%. Also, the pest or weed control at 250 g/ha in series [4] was no less than 80%. Besides, the Efficacy in % in series [5] was determined as 100%.

In series [5], `CNC(=O)C(=NOCF)c1ccccc1Oc1ncnc(Oc2ccccc2Cl)c1F` [drawing 98] yielded an Efficacy in % of 100%.

`CNC(=O)/C(=N\OCF)c1ccccc1Oc1ncnc(Oc2cccc(C)c2C)c1F` [Example 9] registered a chromatographic logP in series [1] of 3.3. Moreover, the pest or weed control at 100 g/ha in series [2] was no less than 98%. The pest or weed control at 10 g/ha in series [3] was no less than 99%. Besides, the pest or weed control at 250 g/ha in series [4] was no less than 80%.

`CNC(=O)/C(=N\OCF)c1ccccc1Oc1ncnc(Oc2ccccc2C#N)c1F` [drawing 102] had an Efficacy in % in series [5] of 100%.

As for `CNC(=O)/C(=N\OCF)c1ccccc1Oc1ncnc(Oc2ccccc2Cl)c1F` [drawing 105], the Efficacy in % in series [5] was determined as 100%.

In turn, `CNC(=O)/C(=N\OCF)c1ccccc1Oc1ncnc(Oc2cccc(Cl)c2C)c1F` [Example 4] displayed a chromatographic logP in series [1] of 3.5. Also, in series [2], the pest or weed control at 100 g/ha is no less than 98%. Also, in series [3], the pest or weed control at 10 g/ha was no less than 99%. The Efficacy in % in series [5] was 100%.

In the case of `CNC(=O)C(NOCF)c1ccccc1Oc1ncnc(Oc2ccccc2[N+](=O)[O-])c1F` (stereo not drawn) [drawing 101], in series [5], the Efficacy in % came to 100%.

In series [1], `CNC(=O)/C(=N\OCF)c1ccccc1Oc1ncnc(Oc2ccccc2C)c1F` [Example 11] showed a chromatographic logP of 3. Further, the pest or weed control at 100 g/ha in series [2] is no less than 98%. Besides, in series [3], the pest or weed control at 10 g/ha was no less than 99%. Moreover, the pest or weed control at 250 g/ha in series [4] is no less than 80%.

For the molecule `CNC(=O)C(=NOCF)c1ccccc1Oc1nc(-c2ccccc2)ns1` [Example 3, 2-fluoromethoxyimino-N-methyl-2-[2-(3-phenyl-[1,2,4]thiadiazol-5-yloxy)-phenyl]-acetamide], the chromatographic logP in series [1] came out at 2.9. In series [2], the pest or weed control at 100 g/ha was no less than 98%. The pest or weed control at 10 g/ha in series [3] is no less than 99%.
